Results on 4 molecules are retold here after patent US6787566B2, “Breakers of advanced glycation endproducts” (City of Hope, priority 1999, dated 2004).

Assay [1] has as its target T1, cross-linked collagen-AGE-BSA (Rattus norvegicus, UniProt P02454+P02466).
T1 construct: purchased Biocoat (Collaborative Research, Bedford, Mass.) for the collagen-coated plates; Sigma Chemical co. for bovine serum albumin
As to the kind of experiment: AGE-BSA-collagen ELISA: cleavage of glycated BSA cross-linked to collagen. The assay is classed as biochemical. The settings on record: for AGE-breaking activity (cleavage of cross-linked collagen-AGE-BSA), in words: 0.1-10 mM final concentration, FIGS. 1A and 1C; for Concentration dependence of AGE-BSA-collagen crosslink breaking, in words: FIGS. 1A-C. Here is the method: In vitro evaluation of the ability of the AGE-breaker compounds to cleave and break cross-linking of glycated BSA (AGE-BSA) (prepared as described (Rahbar et al., 1999)) to the rat-tail-tendon-collagen was by a special ELISA (Vasan et al., 1996). The rat-tail-tendon-collagen coated plates were first blocked first with 300 μL of Superblock blocking buffer (Pierce Chemicals, Rockford, Ill.) for one hour. The blocking solution was removed from the wells by washing the plates twice with PBS-0.05% Tween 20 (PBS-T) using a Dynatech ELISA-plate washer. Cross-linking of various concentrations of AGE-BSA (0, 0.01, 0.05, 0.1, 0.25, 0.50, and 1.0 μg per well) to rat-tail-collagen coated plates was performed without the testing compound, and the plates were incubated for 5 hours at 37° C. After washing the wells three times with PBS-T to remove the unattached AGE-BSA, test concentrations of the compound (50 μL/well) dissolved in PBS were added to wells in triplicate and incubation continued at 37° C. overnight. After washing with PBS-T, the amount of BSA remaining attached to the tail collagen plate was then quantified by addition of rabbit anti-BSA polyclonal antibodies (50 μL/well) for 1 hour at 37° C. The wells were then washed three times with PBS-T and developed with the chromogenic substrate ABTS (100 μL/well). Absorbance was measured at 410 nm in microplate reader (BioRad, Hercules, Calif.).
The percentage breaking activity is calculated by the following formula: 100×[(A410, PBS control)−(A410, AGE-breaker compound)]/[A410, PBS control].
A general note: An ELISA detects its analyte on a solid surface through an enzyme-linked reagent.

Assay [2] relates to IgG-AGE cross-linked to the rat RBC surface. As to the kind of experiment: Cleavage of IgG-AGE cross-linked to RBC surface, anti-IgG ELISA. The class given is cell-based. The settings on record: RBCs of diabetic rats vs diabetic and non-diabetic controls; FIG. 6. As to the method:
IgG cross-linked to the RBC surface was determined with an anti-IgG by a modification of the method described by Vasan et al. (1996). Briefly, heparinized blood was drawn from the tail vein in capillary tubes, inverted several times, then centrifuged at 200×g for five minutes at room temperature. RBCs were washed three times with PBS in 0.5 mL microfuge tubes and packed with a final centrifugation at 500×g. Red cells were diluted at 1:10 to 1:100 in Dulbecco's Modified Eagle's Medium that is normal for glucose. Experimental compounds were added at desired concentrations and incubated at 37° C. in a CO2 incubator for 24 hours in sterile conditions. Control incubations contained RBCs and PBS alone. After incubation, RBCs were washed three times in PBS and packed cells diluted 1:200 to 1:500. The RBC suspensions were gently vortexed and 50 μL aliquots added to 450 μL of a polyclonal rabbit anti-rat IgG conjugated to alkaline phosphatase (diluted 1:2500 in PBS). […] The RBCs were pelleted and the supernatant was read at […] in either a conventional spectrometer or an ELISA reader. Blank readings were obtained by incubating tubes without cells.

For assay [3], the target named is T2, native and glycated β-amyloid (1-40) peptide fibrils (Homo sapiens, UniProt P05067).
T2 construct: β-amyloid (1-40) peptide was from Bachem (Torrance, Calif.); purchased Bachem (Torrance, Calif.)
As to the kind of experiment: Thioflavine T fluorescence assay of β-amyloid fibril disaggregation. The assay is classed as biochemical. The settings on record: ThT assay. As to the method:
Both dyes have been adapted to in vitro measurements of amyloid fibril formation and quantification. ThT binding to β-amyloids gives rise to a large fluorescence excitation spectral shift that allows selective excitation of the amyloid fibril bound ThT (Tjernberg et al., 1999). In the present study, we have investigated the disaggregation of both native (unmodified) and glycated β-amyloid (1-40) peptide by the AGE-breaker compounds introduced here. Stock solutions of peptide were dissolved in deionized water at a concentration of 1 mg/mL. For AGE crosslinking experiments, they were incubated in 4 mL polypropylene tubes at a concentration of 250 μg/mL (60 μM) and 50 mM glucose in 50 mM sodium phosphate buffer, pH 7.9, at 50° C. in the dark for 5 days. Sodium azide (0.01% w/v) was added to prevent microbiological growth. In long-term experiments, water was added every 12 hours to compensate for solvent evaporation. AGE-β-amyloid was then dialyzed against double-distilled water using Spectra/Por CE dialysis membrane (molecular mass cut off: 1000 Da), and then freeze dried. Two sets of experiments were prepared for each compound. Solutions for the first experiment contained 100 μM of β-amyloid in 50 mM Tris-buffered saline (TBS) pH 7.4, and […] (the drugs were dissolved in DMSO and the solutions were prepared for dilution from this DMSO stock). The second set contained 100 μM of β-amyloid in TBS and 100 μM of one compound. The reactions were incubated at 37° C. for 24 hours without stirring (stagnant assay). Control experiments were prepared accordingly except that no AGE-breaker compounds were added to the tubes. The same protocol was used for both native and glycated β-amyloid peptides. The incubated samples are vortexed and 40 μL aliquots are withdrawn and mixed with 960 μL of 10 μM ThT in 10 mM sodium phosphate-buffer. Fluorescence measurements were taken with excitation of 437 nm and emission at 485 nm. Slit widths are set to 5 nm.

The subject of assay [4] is crosslinks formed in skin and tail collagen of diabetic rats. The settings on record: cited from earlier work.
A further assay has as its target T3, β-amyloid fibrils (Homo sapiens, UniProt P05067).
T3 construct: β-AP (amino acids 1-40, from Bachem, Torrance, Calif.)
Conditions: 20 mM; cited from earlier work.

T1 sequence (P02454 152-1207 limits assumed): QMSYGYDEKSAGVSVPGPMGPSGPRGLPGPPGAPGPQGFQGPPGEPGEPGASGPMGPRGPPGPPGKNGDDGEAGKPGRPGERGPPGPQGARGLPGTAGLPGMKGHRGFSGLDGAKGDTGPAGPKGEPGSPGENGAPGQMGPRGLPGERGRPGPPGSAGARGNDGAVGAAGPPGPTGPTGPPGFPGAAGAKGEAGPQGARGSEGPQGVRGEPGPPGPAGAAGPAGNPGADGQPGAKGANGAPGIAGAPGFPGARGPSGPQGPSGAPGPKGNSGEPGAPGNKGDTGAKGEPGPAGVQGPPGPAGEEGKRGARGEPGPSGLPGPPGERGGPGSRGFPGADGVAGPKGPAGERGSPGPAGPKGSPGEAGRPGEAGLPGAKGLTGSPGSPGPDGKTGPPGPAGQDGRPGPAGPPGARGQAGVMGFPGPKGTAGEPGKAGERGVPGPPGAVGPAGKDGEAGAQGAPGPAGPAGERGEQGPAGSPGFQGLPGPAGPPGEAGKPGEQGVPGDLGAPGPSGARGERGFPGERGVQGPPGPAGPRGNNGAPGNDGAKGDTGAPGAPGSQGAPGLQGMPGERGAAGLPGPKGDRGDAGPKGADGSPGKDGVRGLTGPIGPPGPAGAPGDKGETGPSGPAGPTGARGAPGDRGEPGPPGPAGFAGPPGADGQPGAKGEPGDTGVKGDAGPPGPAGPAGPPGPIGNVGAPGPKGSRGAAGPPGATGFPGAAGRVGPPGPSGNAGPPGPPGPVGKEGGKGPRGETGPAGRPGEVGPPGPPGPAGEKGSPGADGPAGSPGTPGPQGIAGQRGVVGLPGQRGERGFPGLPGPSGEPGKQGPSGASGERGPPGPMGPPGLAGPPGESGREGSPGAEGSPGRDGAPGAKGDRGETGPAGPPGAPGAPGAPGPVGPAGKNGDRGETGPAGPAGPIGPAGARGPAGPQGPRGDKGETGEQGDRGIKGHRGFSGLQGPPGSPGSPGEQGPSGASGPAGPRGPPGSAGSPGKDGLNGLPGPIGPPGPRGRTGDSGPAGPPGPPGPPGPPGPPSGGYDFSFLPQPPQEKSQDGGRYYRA
T1 sequence (P02466 86-1125 limits assumed): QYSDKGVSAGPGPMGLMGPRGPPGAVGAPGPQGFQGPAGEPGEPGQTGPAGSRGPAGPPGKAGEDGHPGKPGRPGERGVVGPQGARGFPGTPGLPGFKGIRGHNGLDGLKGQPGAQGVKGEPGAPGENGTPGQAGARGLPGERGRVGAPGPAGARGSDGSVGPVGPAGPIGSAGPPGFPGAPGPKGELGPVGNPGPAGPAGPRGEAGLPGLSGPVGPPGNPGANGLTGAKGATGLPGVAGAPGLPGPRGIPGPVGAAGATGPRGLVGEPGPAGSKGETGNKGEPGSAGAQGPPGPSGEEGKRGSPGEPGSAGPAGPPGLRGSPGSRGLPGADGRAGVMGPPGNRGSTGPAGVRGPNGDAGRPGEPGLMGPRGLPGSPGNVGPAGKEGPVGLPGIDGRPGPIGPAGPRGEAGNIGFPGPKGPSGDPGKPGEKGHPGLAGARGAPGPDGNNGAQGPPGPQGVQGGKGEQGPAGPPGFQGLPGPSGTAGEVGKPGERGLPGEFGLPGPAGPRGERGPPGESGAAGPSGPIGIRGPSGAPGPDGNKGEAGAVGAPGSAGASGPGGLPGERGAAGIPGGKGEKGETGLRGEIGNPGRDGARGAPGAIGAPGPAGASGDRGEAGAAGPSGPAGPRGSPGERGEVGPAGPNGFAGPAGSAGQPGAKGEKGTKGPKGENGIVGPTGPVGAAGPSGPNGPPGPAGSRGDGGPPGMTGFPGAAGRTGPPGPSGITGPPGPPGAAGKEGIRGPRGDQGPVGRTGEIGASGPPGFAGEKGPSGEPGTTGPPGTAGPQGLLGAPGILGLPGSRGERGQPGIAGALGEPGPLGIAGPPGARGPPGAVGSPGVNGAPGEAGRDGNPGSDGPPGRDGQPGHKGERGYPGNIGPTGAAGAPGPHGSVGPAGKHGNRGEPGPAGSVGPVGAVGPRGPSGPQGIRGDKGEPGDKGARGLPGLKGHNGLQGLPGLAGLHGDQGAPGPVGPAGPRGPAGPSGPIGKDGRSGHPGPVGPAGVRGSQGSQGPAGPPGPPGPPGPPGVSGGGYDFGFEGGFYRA
T2 sequence (P05067 672-711): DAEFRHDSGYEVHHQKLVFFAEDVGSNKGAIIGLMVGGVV
T3 sequence (P05067 672-711): as above

As to “1,4-benzene-bis[4-methyleneaminophenoxyisobutyric acid] [LR102]”, in assay [1], the “AGE-breaking activity (cleavage of cross-linked collagen-AGE-BSA), in words” value is given as “very effective AGE-breakers” and the “Concentration dependence of AGE-BSA-collagen crosslink breaking, in words” value was “more potent at lower concentrations”. In addition, the “Overall AGE-breaking property, in words” value in assay [1] (overall judgement of the patent's tests) is “most effective AGE-breakers”. The “IgG-AGE bound to RBC surface, in words” value in assay [2] is listed as “almost the same IgG-AGE content as that of non-diabetic control”. Further, the “Disaggregation of fibrillar forms of native and glycated β-amyloid, in words” value in assay [3] is “clearly confirmed the efficacy”.

For the molecule `Cc1sc[n+](CC(=O)c2ccccc2)c1C.[Cl-]` [ALT711], the “Cleaving crosslinks formed in skin and tail collagen, in words” value in assay [4] is recorded as “not effective”.

Take `O=C(C[n+]1ccsc1)c1ccccc1.[Br-]` [PTB, N-phenacylthiazolium bromide]: at β-amyloid fibrils, the “Disaggregation of β-amyloid fibrils, in words” value is reported as “disaggregates β-amyloid fibrils”.

On to “methylene bis [LR90, methylene bis [4,4′-(2-chlorophenylureidophenoxyisobutyric acid)]]”, for which, in assay [1], the “AGE-breaking activity (cleavage of cross-linked collagen-AGE-BSA), in words” value is on record as “very effective AGE-breakers” and the “Concentration dependence of AGE-BSA-collagen crosslink breaking, in words” value is “more effective breakers at higher concentrations”. In assay [3], the “Disaggregation of fibrillar forms of native and glycated β-amyloid, in words” value was “clearly confirmed the efficacy”.
